# Laboratory results: US20060147569A1, “Anti-depression formulations” (priority 2005, published 2006)
# Structures can show the parent of a compound that is named as a salt.
# How the values were obtained:
# Format in all cases: in vivo
# [1] = tested on: Male ICR mice; assay: Tail suspension test (TST) in mice; conditions: oral once daily, 26 mg/kg
# Excerpt: A major symptom of depression is decrease of motivational behaviors. In the TST model, the tail-suspended mice struggle in attempt to overcome the abnormal body positions, which is a motivational behavior. After a period of time, the mice started to show occasional immobility, representing a “despair” mental state. The immobility is regarded as “failure to adapt to stress” and can be served as an indicator of the level of depression. The effectiveness of anti-depression drugs could be derived by measuring the duration of immobility after the mice had been tail-suspended for a period of time. The model is sensitive to anti-depression drugs and is widely adopted as a means to screen such drugs. (Steru L, Chermat R, Thierry B, Simon P. 1985.)
# (§1) Male ICR mice (26±2 g) were used. The mice were housed in polycarbonate cages. […]
# (§2) The animals were deprived of food but not water for 1.5 h prior to drug administration of. […] The volume of the suspension administered was based on body weight measured immediately prior to each dose, respectively. […]
# The tail suspension test was based on the method of Steru (Steru, et al., 1985). […] The duration of immobility time was recorded during the final 4 min interval of the test. […]
# (§3) All data were expressed as mean±SEM, and analyzed using one-way analysis of variance (ANOVA). […]
# [2] = tested on: Male ICR mice; assay: Forced swimming test (FST) in mice; conditions: oral once daily, 26 mg/kg
# Excerpt: A major symptom of depression is decrease of motivational behaviors. In the FST model, the mice were forced to swim in a restricted space. First, they struggle in attempt to escape, which is a motivational behavior. After a period of time, the mice started to show occasional immobility, representing a “despair” mental state. The immobility is regarded as “failure to adapt to stress” and can be served as an indicator of the level of depression. The effectiveness of anti-depression drugs could be derived by measuring the duration of immobility after the mice had been forced to swim for a period of time. The model is sensitive to anti-depression drugs and is widely adopted as a means to screen such drugs. (Porsolt et al., 1977)
# as §1, §2
# The studies were carried out on mice according to the method of Porsolt (Porsolt, et al., 1977). […] The duration of immobility time was measured during the final 4 min interval of the test. […]
# as §3
# [3] = tested on: CMS-treated rats; assay: Sucrose intake test in chronic mild stress (CMS) model; conditions: for sucrose intake: CMS-treated rats, 10 mg/kg oral daily
# Excerpt: In the CMS model, rats are exposed sequentially, over a period of weeks, to a variety of mild stressors, and the measure most commonly used to track the effects is a decrease in consumption of a palatable sweet solution. This […] of antidepressants to increase sucrose intake in CMS model of rats. […] These impairments could be reversed by chronic administration of antidepressants such as tricyclic antidepressants, selective serotonin reuptake inhibitors and monoamine oxidase inhibitors. […] (Willner P. 1997)
# Male Wistar rats, weighing 180-220 g at the start of the experiment, were used in the experiments. During the one week before experiment, each rat was housed individually in a home cage, and had free access to food and water. They were maintained on a 12 h light/dark cycle under controlled temperature 25±2° C. and tested in the light phase.
# (§4) 3. Administration and Doses • Non CMS-treated Saline group: 10 ml/kg/day. • CMS-treated Saline group: 10 ml/kg/day. • Composition I (200) group: 200 mg/kg/day. • Composition I (150) group: 150 mg/kg/day. • Fluoxetine group (positive control): 10 mg/kg/day.
# The above substances at various concentrations were dissolved in saline. The volume of the suspension administered was based on body weight measured immediately prior to each dose, respectively. All groups were administered orally for six weeks, once per day. All groups except for Non-CMS-treated saline group received CMS treatment as described below.
# All animals were trained to consume 1% (w/v) sucrose solution in water. The training was conducted twice a week for consecutive 3 weeks. In the training, the rats in the home cage were deprived of food and water for 14 hours. After 14 hours, about 30 ml of 1% (w/v) sucrose solution in a pre-weighed bottled was placed in the home cages. 1 hour later, the bottle was taken out from the cage and weighed. The sucrose intake was calculated as follows: […]
# Calculation: Weight of Bottle Before Intake (g)—Weight of Bottle After Intake (g)
# After three weeks of training, when the sucrose intake of rats was stabilized, the rats started to receive further treatment. During the whole treatment period, the sucrose intakes of rats were monitored once every week from 9:00 a.m. to 10:00 a.m. with the same procedures as described above.
# After the three-weeks training, the rats were randomly divided into two groups: the non-CMS treated group and CMS-treated group. The stress group of animals was subjected to the CMS procedure for a period of four consecutive weeks. Each week of stress regime is consisted of six different stress situations. They involved two periods of food and water deprivation, two periods of 45 o cage tilt, two periods of intermittent illumination (lights on and off every 2 h), two periods of soiled cage (200 mL water in sawdust bedding), two periods of paired housing, and two periods of low intensity stroboscopic illumination (150 flashes/min). All of the stressors were 12-14 h of duration and were applied individually and sequentially, day and night.
# (§5) Animals therein were divided randomly into the following four subgroups: • (1) Composition I (200) group: received composition I at 200 mg/kg/day; • (2) Composition I (150) group: received composition I at 150 mg/kg/day; • (3) Fluoxetine group: received fluoxetine 10 mg/kg/day; (positive control); • (4) CMS-treated saline group: received saline 10 mL/kg/day. (negative control).
# The rats in non-CMS treated group received saline solution at 10 mL/kg orally. All administrations were given orally once daily at 10:00 a.m. for consecutive 6 weeks.
# [4] = molecular target: T1, brain MAO-A (Rattus norvegicus, UniProt P21396); assay: Brain MAO-A activity in CMS-treated rats; conditions: brain of CMS-treated rats, 10 mg/kg oral daily for 6 weeks
# T1 construct: Rat brain mitochondrial fractions were prepared; from tissue; host or cells: rat brain mitochondrial fraction
# T1 sequence (P21396 1-526): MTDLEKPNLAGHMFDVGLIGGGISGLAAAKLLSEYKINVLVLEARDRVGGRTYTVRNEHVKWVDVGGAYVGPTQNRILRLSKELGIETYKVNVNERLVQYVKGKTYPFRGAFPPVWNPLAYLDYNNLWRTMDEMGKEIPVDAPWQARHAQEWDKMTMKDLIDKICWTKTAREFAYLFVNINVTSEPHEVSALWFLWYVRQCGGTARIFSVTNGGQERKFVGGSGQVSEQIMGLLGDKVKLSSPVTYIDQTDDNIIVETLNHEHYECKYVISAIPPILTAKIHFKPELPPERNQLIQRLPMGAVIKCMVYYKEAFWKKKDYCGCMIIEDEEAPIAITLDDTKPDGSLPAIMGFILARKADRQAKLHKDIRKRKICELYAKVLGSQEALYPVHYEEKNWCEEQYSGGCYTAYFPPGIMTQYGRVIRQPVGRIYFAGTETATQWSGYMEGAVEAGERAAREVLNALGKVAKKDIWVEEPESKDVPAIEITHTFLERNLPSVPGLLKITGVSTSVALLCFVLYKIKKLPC
# Experimental: as §4, §5
# (§6) 24 h after the last test of sucrose intake, between 10:00 a.m. and 11:00 a.m., all animals were decapitated quickly to get venous blood. Serum was separated by centrifugation at 3000 rpm and stored at −20° C. until assay of cortisol concentration. Brain tissues were rapidly removed on the ice-plate. The tissues were washed with cold saline, blotted dry and stored at −80° C. until assays of monoamine oxidase A and B (MAO-A and MAO-B) activity.
# (§7) Rat brain mitochondrial fractions were prepared following the procedure described in Schurr and Livne, 1976. MAO activity was assessed by spectrophotometer as described in Yu et al., 2002. […] The organic phase was measured at wavelength of 280 nm and 242 nm for MAO-A and MAO-B assay with spectrophotometer, respectively. […]
# [5] = molecular target: T2, brain MAO-B (Rattus norvegicus, UniProt P19643); assay: Brain MAO-B activity in CMS-treated rats; conditions: brain of CMS-treated rats, 10 mg/kg oral daily for 6 weeks
# T2 construct: Rat brain mitochondrial fractions were prepared; from tissue; host or cells: rat brain mitochondrial fraction
# T2 sequence (P19643 1-520): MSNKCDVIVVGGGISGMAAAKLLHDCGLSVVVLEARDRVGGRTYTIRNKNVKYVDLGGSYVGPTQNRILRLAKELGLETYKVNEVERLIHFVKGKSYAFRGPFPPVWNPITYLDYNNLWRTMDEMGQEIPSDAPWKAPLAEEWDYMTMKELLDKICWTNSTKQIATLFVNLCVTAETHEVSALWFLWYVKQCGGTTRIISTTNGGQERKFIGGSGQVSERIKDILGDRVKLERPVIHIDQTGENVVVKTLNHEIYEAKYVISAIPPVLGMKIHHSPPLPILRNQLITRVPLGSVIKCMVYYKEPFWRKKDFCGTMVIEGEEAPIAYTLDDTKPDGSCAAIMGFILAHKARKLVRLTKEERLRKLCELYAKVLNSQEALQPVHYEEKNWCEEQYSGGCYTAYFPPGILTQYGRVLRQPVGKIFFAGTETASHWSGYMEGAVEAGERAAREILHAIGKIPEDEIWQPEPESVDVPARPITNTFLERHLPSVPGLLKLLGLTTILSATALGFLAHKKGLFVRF
# Experimental: as §4, §5, §6, §7
# [6] = tested on: serum cortisol; assay: Serum cortisol level in CMS-treated rats (radioimmunoassay)
# Experimental: as §4, §5, §6
# Serum cortisol level was assayed using a radioimmunoassay method following the manufacturer's instructions. (Manufacturer: Bejing Furui Biotechnology Company, P.R. China. Product code: FR-FJ-055).
structure (smiles),measurement,setting,value
"CNCCC(Oc1ccc(C(F)(F)F)cc1)c1ccccc1 (stereo not drawn) [Fluoxetine, Fluoxetine Hydrochloride]",Duration of immobility,[1]; 3 days,23.2 ± 5.2 s
same,Duration of immobility,[1]; 7 days,28.8 ± 6.4 s
same,Duration of immobility,[2]; 3 days,67.6 ± 10.2 s
same,Duration of immobility,[2]; 7 days,67.1 ± 8.9 s
same,recovery of the sucrose intake (in words),"[3]; CMS rats, fluoxetine-treated (10 mg/kg)",not as strong as those treated with Composition (I)
same,sucrose intake,[3]; week 0 of drug treatment,5.3 ± 1.4 g
same,sucrose intake,[3]; week 1,5.5 ± 1.3 g
same,sucrose intake,[3]; week 2,5.9 ± 1.4 g
same,sucrose intake,[3]; week 3,7.3 ± 1.5 g
same,sucrose intake,[3]; week 4,8.9 ± 1.1 g
same,sucrose intake,[3]; week 5,10.4 ± 1.3 g
same,sucrose intake,[3]; week 6,13.9 ± 1.3 g
same,MAO activity A,[4],78.05 ± 3.68 U/g protein
same,inhibition at 10 mg/kg,[4]; rat,16.4%
same,MAO activity B,[5],54.50 ± 3.56 U/g protein
same,inhibition at 10 mg/kg,[5]; rat,54%
same,effect on serum cortisol levels (in words),"[6]; CMS-treated rats, fluoxetine (10 mg/kg)",did not cause any significant alteration
same,Cortisol level,"[6]; serum of CMS-treated rats, 10 mg/kg oral daily for 6 weeks",28.76 ± 0.56 ng/mL
